Counter-ions that a name gives are not always drawn.
Experiments:
SMN protein = SMN protein assay (HTRF) in cultured SMA patient fibroblast cells; assay type: cell-based; conditions: SMA Type 1 human fibroblasts GM03813, 48 hours; for EC1.5x SMN protein (EC1.5x concentration for SMN protein expression): 7-point concentration curve, concentration giving 1.5 times SMN protein vs vehicle; for max. fold increase (maximum fold increase of SMN protein): 7-point concentration data, fold vs vehicle control
In short: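 SMA patient fibroblasts seeded at 5,000 cells/well, treated 48 h at 37 °C in triplicate per concentration (7-point series). Lysed in RIPA with protease inhibitors; SMN read by HTRF (anti-SMN d2/kryptate, overnight RT), 665/620 nm ratio. ΔF vs blank, expressed as fold over vehicle; EC1.5x and maximum fold increase derived.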

[1] = tested on: full length SMN2 minigene mRNA (FL SMN2mini) in HEK293H cells stably transfected with the SMN2-A minigene construct; test: SMN2 minigene mRNA splicing RT-qPCR assay in cultured cells; assay type: cell-based; conditions: Homo sapiens, HEK293-H, 24 hours, 7-point concentration curve, concentration giving 1.5-fold FL SMN2mini mRNA vs vehicle, read-out: EC1.5x minigene (EC1.5x concentration for production of full length SMN2 minigene mRNA)
In short: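 Stably transfected HEK293H cells, 10,000/well in DMEM/10% FBS with hygromycin, attached 6 h, then received compound for 24 h at 37° C in duplicate at 7 concentrations. Multiplex RT-qPCR with GAPDH used primers that detect only the minigene. An efficiency-corrected ΔΔCt, GAPDH- and vehicle-normalized, gave EC1.5x concentrations.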

| Compound | EC1.5x SMN protein (EC1.5x concentration for SMN protein expression) (SMN protein) [µM] | max. fold increase (maximum fold increase of SMN protein) (SMN protein) | EC (1.5-fold) [1] [µM] |
| --- | --- | --- | --- |
| Cc1cn2cc(NC(=O)c3ccc(N4CCN[C@@H](C)C4)cc3F)cc(F)c2n1 [Example 50, (S)-2-fluoro-N-(8-fluoro-2-methyl-imidazo[1,2-a]-pyridin-6-yl)-4-(3-methylpiperazin-1-yl)benzamide hydrochloride] | 0.0344 | 1.6607 | 0.0068 |
| Cc1cn2cc(NC(=O)c3ccc(N4CCN[C@H](C)C4)cc3F)cc(F)c2n1 [Example 51, (R)-2-fIuoro-N-(8-fluoro-2-methyl-imidazo[1,2-a]-pyridin-6-yl)-4-(3-methylpiperazin-1-yl)benzamide hydrochloride] | 0.0561 | 1.7266 | 0.0084 |
| Cc1nc2c(F)cc(NC(=O)c3ccc(N4CCNCC4)cc3F)cc2o1 [Example 58, 2-fluoro-N-(4-fluoro-2-methyl-benzo[d]oxazol-6-yl)-4-(piperazin-1-yl)benzamide] | 0.1159 | 1.7744 | 0.0398 |
| Cc1cn2cc(NC(=O)c3ccc(N4CCNCC4)cc3F)cc(C(F)(F)F)c2n1 [Example 59, 2-fluoro-N-(2-methyl-8-(trifluoromethyl)-imidazo[1,2-a]-pyridin-6-yl)-4-(piperazin-1-yl)-benzamide] | 0.2749 | 1.7116 | 0.109 |
| Cc1cn2cc(NC(=O)c3ccc(C4=CCNCC4)cc3F)ccc2n1 [Example 60, 2-fluoro-N-(2-methylimidazo[1,2-a]pyridin-6-yl)-4-(1,2,3,6-tetrahydro-pyridin-4-yl)-benzamide hydrochloride] | 0.107 | 1.7375 | 0.0428 |
| Cc1cn2cc(NC(=O)c3ccc(C4=CCNCC4)cc3F)cc(F)c2n1 [Example 61, 2-fIuoro-N-(8-fluoro-2-methyl-imidazo[1,2-a]-pyridin-6-yl)-4-(1,2,3,6-tetra-hydropyridin-4-yl)benzamide hydrochloride] |  | 1.7077 | 0.01 |
| Cc1cn2cc(NC(=O)c3ccc(C4=CCNCC4)nc3)cc(F)c2n1 [Example 62, N-(8-fluoro-2-methylimidazo[1,2-a]pyridin-6-yl)-6-(1,2,3,6-tetra-hydropyridin-4-yl)nicotinamide dihydrochloride] |  | 1.5583 | 0.0136 |
| Cc1cn2cc(NC(=O)c3ccc(C4=CCNCC4)cn3)ccc2n1 [Example 63, N-(2-methyl-imidazo[1,2-a]-pyridin-6-yl)-5-(1,2,3,6-tetra-hydropyridin-4-yl)picolinamide dihydrochloride] | 1.0431 | 1.6807 | 0.16 |
| COc1nc(N2CCNCC2)ccc1C(=O)Nc1cc(F)c2nc(C)cn2c1 [Example 64, N-(8-fluoro-2-methylimidazo[1,2-a]pyridin-6-yl)-2-methoxy-6-(piperazin-1-yl)nicotinamide] | 0.1192 | 1.7581 | 0.0291 |
| Cc1cn2cc(NC(=O)c3ccc(N4CCNCC4)nc3F)cc(F)c2n1 [Example 65, 2-fIuoro-N-(8-fluoro-2-methylimidazo[1,2-a]pyridin-6-yl)-6-(piperazin-1-yl)-nicotinamide] | 0.1135 | 1.7675 | 0.0762 |
| Cc1cn2cc(NC(=O)c3ccc(N4CCNCC4)c(C)c3)cc(F)c2n1 [Example 66, N-(8-fluoro-2-methylimidazo[1,2-a]pyridin-6-yl)-3-methyl-4-(piperazin-1-yl)benzamide] | 0.6108 | 1.5438 | 0.518 |
| Cc1cn2cc(NC(=O)c3cnc(N4CCNCC4)c(C)c3)cc(F)c2n1 [Example 67, N-(8-fluoro-2-methylimidazo[1,2-a]pyridin-6-yl)-5-methyl-6-(piperazin-1-yl)nicotinamide] | 0.866 | 1.6552 | 0.318 |
| Cc1cn2cc(NC(=O)c3cnc(N4CCNCC4)cc3F)cc(F)c2n1 [Example 68, 4-fluoro-N-(8-fluoro-2-methylimidazo[1,2-a]pyridin-6-yl)-6-(piperazin-1-yl)nicotinamide] | 0.057 | 1.6943 | 0.0285 |
| COc1cc(N2CCNCC2)ncc1C(=O)Nc1cc(F)c2nc(C)cn2c1 [Example 69, N-(8-fluoro-2-methylimidazo[1,2-a]pyridin-6-yl)-4-methoxy-6-(piperazin-1-yl)nicotinamide] | 0.1645 | 1.7612 | 0.0308 |
| Cc1cn2cc(NC(=O)c3cnc(N4CCNCC4)cc3OCC(F)(F)F)cc(F)c2n1 [Example 71, N-(8-fluoro-2-methylimidazo[1,2-a]pyridin-6-yl)-6-(piperazin-1-yl)-4-(2,2,2-trifluoro-ethoxy)nicotinamide] | 0.4077 | 1.4815 | 0.077 |
| CCOc1nc(N2CCNCC2)ccc1C(=O)Nc1cc(F)c2nc(C)cn2c1 [Example 72, 2-ethoxy-N-(8-fluoro-2-methylimidazo[1,2-a]pyridin-6-yl)-6-(piperazin-1-yl)-nicotinamide] | 0.1324 | 1.7095 | 0.015 |
| Cc1cn2cc(NC(=O)c3ccc(N4CCNCC4)nc3OCC(F)(F)F)cc(F)c2n1 [Example 73, N-(8-fluoro-2-methylimidazo[1,2-a]pyridin-6-yl)-6-(piperazin-1-yl)-2-(2,2,2-trifluoro-ethoxy)nicotinamide] | 0.7589 | 1.5775 | 0.062 |
| COc1nc(N2CCNC(C)(C)C2)ccc1C(=O)Nc1cc(F)c2nc(C)cn2c1 [Example 75, 6-(3,3-dimethyl-piperazin-1-yl)-N-(8-fluoro-2-methyl-imidazo[1,2-a]-pyridin-6-yl)-2-methoxynicotinamide] | 0.3061 | 1.7035 | 0.0654 |
